Reference: ChEMBL document CHEMBL3352258 (J Med Chem, 2014)
In brackets after ≈: the same amount, converted by molar mass. Activity calls are given as the source filed them. The rule behind the calls is not given here.

Columns and labels:
[1] = target: T1, Glucose-dependent insulinotropic receptor (Homo sapiens, UniProt Q8TDV5); assay: Agonist activity at human GPR119
T1 sequence (Q8TDV5 whole entry): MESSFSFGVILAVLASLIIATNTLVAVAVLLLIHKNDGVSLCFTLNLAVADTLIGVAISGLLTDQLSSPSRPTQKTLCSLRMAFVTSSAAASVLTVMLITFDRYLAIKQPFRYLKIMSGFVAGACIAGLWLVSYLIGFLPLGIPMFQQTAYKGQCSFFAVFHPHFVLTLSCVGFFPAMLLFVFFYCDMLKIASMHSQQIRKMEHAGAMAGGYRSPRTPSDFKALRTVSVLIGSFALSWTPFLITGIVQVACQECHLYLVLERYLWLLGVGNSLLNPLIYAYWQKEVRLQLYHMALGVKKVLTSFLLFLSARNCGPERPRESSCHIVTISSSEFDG

Mus musculus [2] = assay: Antidiabetic activity in db/db mouse assessed as reduction in glucose AUC at 3 mg/kg, po qd administered 1 hr prior glucose challenge measured after 21 days by oral glucose tolerance test relative to control; format: functional; set-up: scale not given: the % may be the effect or the level left
hERG (KCNH2) = hERG (KCNH2) (Homo sapiens, UniProt Q12809); assay: Inhibition of human ERG at 10 uM by patch clamp assay
hERG (KCNH2), sequence (Q12809 whole entry): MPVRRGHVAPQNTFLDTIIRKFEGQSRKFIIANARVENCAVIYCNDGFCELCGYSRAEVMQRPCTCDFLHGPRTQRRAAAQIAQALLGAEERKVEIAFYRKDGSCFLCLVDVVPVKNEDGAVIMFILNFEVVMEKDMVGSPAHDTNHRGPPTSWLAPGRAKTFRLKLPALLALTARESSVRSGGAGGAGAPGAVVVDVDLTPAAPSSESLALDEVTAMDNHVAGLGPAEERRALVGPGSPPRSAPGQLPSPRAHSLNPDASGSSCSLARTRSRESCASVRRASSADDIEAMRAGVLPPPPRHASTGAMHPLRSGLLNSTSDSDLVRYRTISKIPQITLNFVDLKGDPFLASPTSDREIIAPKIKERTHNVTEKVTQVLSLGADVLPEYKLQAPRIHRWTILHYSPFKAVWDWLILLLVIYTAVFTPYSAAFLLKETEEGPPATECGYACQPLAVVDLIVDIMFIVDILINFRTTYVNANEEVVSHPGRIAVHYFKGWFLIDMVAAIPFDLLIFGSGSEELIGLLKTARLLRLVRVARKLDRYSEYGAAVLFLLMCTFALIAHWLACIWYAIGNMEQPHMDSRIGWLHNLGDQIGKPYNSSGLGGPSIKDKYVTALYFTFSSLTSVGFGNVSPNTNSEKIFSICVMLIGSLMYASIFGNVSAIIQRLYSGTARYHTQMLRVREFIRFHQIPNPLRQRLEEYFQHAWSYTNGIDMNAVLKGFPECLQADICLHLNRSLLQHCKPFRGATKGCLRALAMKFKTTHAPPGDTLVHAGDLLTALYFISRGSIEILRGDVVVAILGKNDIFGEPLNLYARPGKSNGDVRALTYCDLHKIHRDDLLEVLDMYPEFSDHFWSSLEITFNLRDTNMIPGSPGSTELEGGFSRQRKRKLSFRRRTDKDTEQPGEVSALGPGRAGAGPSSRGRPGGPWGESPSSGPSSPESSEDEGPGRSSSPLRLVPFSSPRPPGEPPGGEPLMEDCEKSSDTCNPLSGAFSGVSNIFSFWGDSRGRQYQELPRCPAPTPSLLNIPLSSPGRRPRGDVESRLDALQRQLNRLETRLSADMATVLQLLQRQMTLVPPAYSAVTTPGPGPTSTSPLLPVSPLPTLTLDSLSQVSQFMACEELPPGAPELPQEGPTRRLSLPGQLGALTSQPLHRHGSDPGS

[3] = Protein binding in rat plasma; format: ADME, cell-free; conditions: read-out: PPB
[4] = Solubility of the compound at pH 1; format: physicochemical; conditions: buffer
[5] = Terminal half life in C57BL/6 mouse at 30 mg/kg, po; format: ADME, organism-based; set-up: dose 30 mg/kg, route oral; conditions: in vivo, read-out: beta t1/2 (converted)
HepG2 = assay: Cytotoxicity against human HepG2 cells at 40 uM; format: cell-based; conditions: hepg2, 40 µM
[6] = target: T2, Nuclear receptor subfamily 1 group I member 2 (Homo sapiens, UniProt O75469); assay: Activation of PXR (unknown origin); format: ADME
T2 sequence (O75469 whole entry): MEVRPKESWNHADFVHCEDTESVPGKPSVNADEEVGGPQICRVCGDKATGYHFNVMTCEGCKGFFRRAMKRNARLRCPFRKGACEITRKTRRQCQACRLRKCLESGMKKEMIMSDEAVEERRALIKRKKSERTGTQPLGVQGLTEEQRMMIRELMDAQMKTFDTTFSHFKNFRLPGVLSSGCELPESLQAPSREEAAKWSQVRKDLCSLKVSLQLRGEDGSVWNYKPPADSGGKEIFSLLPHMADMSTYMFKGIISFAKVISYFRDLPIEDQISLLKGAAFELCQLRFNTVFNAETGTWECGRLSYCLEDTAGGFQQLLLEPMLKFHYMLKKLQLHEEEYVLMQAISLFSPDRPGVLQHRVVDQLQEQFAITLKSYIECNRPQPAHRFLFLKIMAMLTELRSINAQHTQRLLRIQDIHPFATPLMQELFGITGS

[7] = Permeability of the compound by PAMPA assay; format: ADME; conditions: read-out: permeability
[8] = AUC in C57BL/6 mouse at 30 mg/kg, po; format: ADME, organism-based; set-up: dose 30 mg/kg, route oral; conditions: plasma
Mus musculus [9] = assay: Antidiabetic activity in db/db mouse assessed as HbA1C level at 30 mg/kg, po qd administered 1 hr prior glucose challenge measured after 21 days by oral glucose tolerance test (reference value: 2.8%); format: functional
Mus musculus [10] = assay: Antidiabetic activity in db/db mouse assessed as reduction in glucose AUC at 30 mg/kg, po qd administered 1 hr prior glucose challenge measured after 21 days by oral glucose tolerance test relative to control; format: functional; set-up: scale not given: the % may be the effect or the level left
Mus musculus [11] = assay: Antidiabetic activity in db/db mouse assessed as reduction in blood glucose level at 0.3 mg/kg, po qd administered 1 hr prior glucose challenge measured after 21 days by oral glucose tolerance test; format: functional; set-up: scale not given: the % may be the effect or the level left
Mus musculus [12] = assay: Antidiabetic activity in db/db mouse assessed as reduction in HbA1C level at 0.3 mg/kg, po qd administered 1 hr prior glucose challenge measured after 21 days by oral glucose tolerance test relative to control; format: functional; set-up: scale not given: the % may be the effect or the level left
[13] = Cmax in C57BL/6 mouse at 30 mg/kg, po after 2 hrs; format: ADME, organism-based; set-up: dose 30 mg/kg, route oral; conditions: in vivo
[14] = Inhibition of cytochrome P450 (unknown origin); format: ADME, Homo sapiens
[15] = Permeability of the compound across human Caco2 cells; format: ADME, cell-based; conditions: Caco-2, read-out: permeability
[16] = target: T3, Glucose-dependent insulinotropic receptor (Homo sapiens) (UniProt Q8TDV5); assay: Intrinsic activity at human GPR119 relative to control
T3 sequence (whole entry): T1 sequence (Q8TDV5 whole entry)

Mus musculus [17] = assay: Antidiabetic activity in db/db mouse assessed as reduction in HbA1C level at 3 mg/kg, po qd administered 1 hr prior glucose challenge measured after 21 days by oral glucose tolerance test relative to control; format: functional; set-up: scale not given: the % may be the effect or the level left
Mus musculus [18] = assay: Antidiabetic activity in db/db mouse assessed as HbA1C level at 300 mg/kg, po qd administered 1 hr prior glucose challenge measured after 21 days by oral glucose tolerance test (reference value: 2.8%); format: functional
Mus musculus [19] = assay: Antidiabetic activity in db/db mouse assessed as reduction in glucose AUC at 300 mg/kg, po qd administered 1 hr prior glucose challenge measured after 21 days by oral glucose tolerance test relative to control; format: functional; set-up: scale not given: the % may be the effect or the level left
Mus musculus [20] = assay: Antidiabetic activity in C57BL/6J mouse assessed as reduction in glucose AUC at 1 mg/kg, po by oral glucose tolerance test relative to vehicle-treated control; format: functional; set-up: scale not given: the % may be the effect or the level left
[21] = Terminal half life in human at 0.1 to 120 mg, po; format: ADME, organism-based; conditions: in vivo, read-out: beta t1/2 (converted)
Mus musculus [22] = assay: Antidiabetic activity in db/db mouse assessed as increase in fasting plasma insulin level at 0.01 to 0.3 mg/kg, po qd administered 1 hr prior glucose challenge measured after 21 days; format: functional, organism-based
Mus musculus [23] = assay: Antidiabetic activity in db/db mouse assessed as reduction in blood glucose level at 30 mg/kg, po qd administered 1 hr prior glucose challenge measured after 21 days by oral glucose tolerance test; format: functional; set-up: scale not given: the % may be the effect or the level left
Rattus norvegicus [24] = assay: AUC (total) in Sprague-Dawley rat at 5 mg/kg, po; format: ADME, organism-based, Plasma; set-up: dose 5 mg/kg, route oral; conditions: in vivo
[25] = Half life in mouse; format: ADME, organism-based; conditions: in vivo
Rattus norvegicus [26] = assay: Tmax in Sprague-Dawley rat at 5 mg/kg, po; format: ADME, organism-based; set-up: dose 5 mg/kg, route oral; conditions: in vivo
Homo sapiens [27] = assay: Antidiabetic activity in human assessed as increase in total GLP1 AUC at 0.6 mg, po measured on day 1; format: functional
Mus musculus [28] = assay: Antidiabetic activity in C57BL/6J mouse assessed as reduction in glucose AUC at 0.3 mg/kg, po by oral glucose tolerance test relative to vehicle-treated control; format: functional; set-up: scale not given: the % may be the effect or the level left
Homo sapiens [29] = assay: Toxicity in human at 0.1 to 120 mg, po; format: organism-based; conditions: in vivo
[30] = Oral bioavailability in Sprague-Dawley rat at 5 mg/kg administered as HMPC SDD formulation; format: ADME, organism-based; conditions: in vivo
[31] = Solubility of the compound at pH 6.5; format: physicochemical; conditions: buffer
Mus musculus [32] = assay: Antidiabetic activity in C57BL/6J mouse assessed as reduction in glucose AUC at 0.03 mg/kg, po by oral glucose tolerance test relative to vehicle-treated control; format: functional; set-up: scale not given: the % may be the effect or the level left
Rattus norvegicus [33] = assay: Cmax in Sprague-Dawley rat at 5 mg/kg, po; format: ADME, organism-based; set-up: dose 5 mg/kg, route oral; conditions: in vivo
Mus musculus [34] = assay: Antidiabetic activity in C57BL/6J mouse assessed as reduction in glucose AUC at 0.1 mg/kg, po by oral glucose tolerance test relative to vehicle-treated control; format: functional; set-up: scale not given: the % may be the effect or the level left
Homo sapiens [35] = assay: Antidiabetic activity in human assessed as reduction in 24 hrs glucose AUC at 0.1 to 120 mg, po measured on day 1; format: functional, organism-based
Mus musculus [36] = assay: Antidiabetic activity in db/db mouse assessed as reduction in blood glucose level at 0.03 mg/kg, po qd administered 1 hr prior glucose challenge measured after 21 days by oral glucose tolerance test; format: functional; set-up: scale not given: the % may be the effect or the level left
Salmonella typhimurium = assay: Genotoxicity in Salmonella typhimurium; format: toxicity, organism-based; conditions: salmonella enterica subsp. enterica serovar typhimurium
[37] = Volume of distribution at steady state in Sprague-Dawley rat at 1 mg/kg, iv; format: ADME, organism-based; set-up: dose 1 mg/kg, route intravenous; conditions: in vivo, read-out: Vdss
Rattus norvegicus [38] = assay: Stimulation of glucose-induced GLP-1 release in cannulated Sprague-Dawley rat at 0.3 mg/kg, po administered 1 hr prior glucose challenge relative to vehicle-treated control; format: functional, organism-based; set-up: dose 0.3 mg/kg
[39] = Oral bioavailability in Sprague-Dawley rat at 5 mg/kg administered as suspension; format: ADME, organism-based; conditions: in vivo
Rattus norvegicus [40] = assay: Half life in Sprague-Dawley rat at 5 mg/kg, po; format: ADME, organism-based; set-up: dose 5 mg/kg, route oral; conditions: in vivo
Homo sapiens [41] = assay: Antidiabetic activity in human assessed as increase in total GLP1 AUC at 10 mg, po measured on day 1; format: functional
[42] = Clearance in Sprague-Dawley rat at 1 mg/kg, iv; format: ADME, organism-based; set-up: dose 1 mg/kg, route intravenous; conditions: in vivo
[43] = Protein binding in human plasma; format: ADME, cell-free; conditions: read-out: PPB (converted)
Homo sapiens [44] = assay: Antidiabetic activity in po dosed human assessed as increase in 24 hrs GLP1 AUC measured on day 1; format: functional, organism-based
[45] = Half life in human liver microsomes; format: ADME
Mus musculus [46] = assay: Antidiabetic activity in db/db mouse assessed as reduction in blood glucose level at 3 mg/kg, po qd administered 1 hr prior glucose challenge measured after 21 days by oral glucose tolerance test; format: functional; set-up: scale not given: the % may be the effect or the level left
Rattus norvegicus [47] = assay: Stimulation of glucose-induced GLP-1 release in cannulated Sprague-Dawley rat at 0.3 mg/kg, po administered 1 hr prior glucose challenge in presence of DPP4 inhibitor relative to vehicle-treated control; format: functional, organism-based; set-up: dose 0.3 mg/kg
[48] = Solubility of the compound in 50% PEG400/ 50% PBS solution; format: physicochemical
Mus musculus [49] = assay: Antidiabetic activity in db/db mouse assessed as reduction in blood glucose level at 0.01 mg/kg, po qd administered 1 hr prior glucose challenge measured after 21 days by oral glucose tolerance test; format: functional; set-up: scale not given: the % may be the effect or the level left
Cynomolgus monkey = assay: Toxicity in cynomolgus monkey at plasma concentration 20 uM by electrophysiology study; format: organism-based, Macaca fascicularis; conditions: in vivo
Oryctolagus cuniculus = organism: Oryctolagus cuniculus; assay: Toxicity in rabbit at plasma concentration 20 uM by electrophysiology study; format: organism-based; conditions: in vivo

## CCCc1cnc(N2CCC(Oc3ccn(-c4ccc(S(C)(=O)=O)cc4F)c(=O)c3)CC2)nc1
[1]
  EC50: 0.018 µM
Mus musculus [2]
  Activity: 32%
hERG (KCNH2)
  inhibition at 10 µM: 47%
[3]
  fraction unbound: 0.01
[4]
  solubility: 630 µg/mL (≈ 1290 µM)
[5]
  half-life: 2.4 h
HepG2
  Activity: Non-toxic
[6]
  EC50: > 50 µM
[7]
  Papp: 32 ×10⁻⁶ cm/s
[8]
  AUC: 245 µM·h
Mus musculus [9]
  Activity: 1.4%
Mus musculus [10]
  Activity: 38%
Mus musculus [11]
  Activity: 16%
Mus musculus [12]
  Activity: 0.6%
[13]
  Cmax: 38.6 µM
[14]
  IC50: > 40 µM
[15]
  Papp: 22 ×10⁻⁶ cm/s
[16]
  Intrinsic activity: 1
Mus musculus [17]
  Activity: 0.4%

## CN(C)C(=N)NC(=N)N [METFORMIN]
Mus musculus [18]
  Activity: 1.4%
Mus musculus [19]
  Activity: 83%

## CS(=O)(=O)c1ccc(-n2cc(Cl)c(OC3CCN(c4ncc(Cl)cn4)CC3)cc2=O)c(F)c1 [BMS-903452]
[1]
  EC50: 0.014 µM
Mus musculus [20]
  Activity: 40%
[21]
  half-life: 36 h
Mus musculus [22]
  Activity: Active
Mus musculus [23]
  Activity: 38%
Rattus norvegicus [24]
  AUC: 95 µM·h
[25]
  half-life: 0.25 h
Rattus norvegicus [26]
  Tmax: 4 h
Homo sapiens [27]
  Activity: 20%
Mus musculus [28]
  Activity: 39%
Homo sapiens [29]
  Activity: Non-toxic
[30]
  bioavailability: 87%
[31]
  solubility: < 1 µg/mL
HepG2
  Activity: Non-toxic
Mus musculus [32]
  Activity: 14%
Rattus norvegicus [33]
  Cmax: 2.7 µM
Mus musculus [34]
  Activity: 37%
[6]
  EC50: > 50 µM
Homo sapiens [35]
  Activity: inactive
Mus musculus [36]
  Activity: 36%
Salmonella typhimurium
  Activity: Non-toxic
[37]
  Vd: 2.2 L/kg
Rattus norvegicus [38]
  Activity: Active
[39]
  bioavailability: 33%
Rattus norvegicus [40]
  t1/2: 0.367 h
Homo sapiens [41]
  Activity: 50%
[42]
  clearance: 1.5 mL/min/kg
[43]
  fraction unbound: 0.005
Homo sapiens [44]
  Activity: Dose-dependent effect
[45]
  half-life: 1.4 h
Mus musculus [46]
  Activity: 13%
Rattus norvegicus [47]
  Activity: Active
[48]
  solubility: 41 µg/mL (≈ 79.9 µM)
Mus musculus [49]
  Activity: 18%
Cynomolgus monkey
  Activity: Non-toxic
[14]
  IC50: > 40 µM
Oryctolagus cuniculus
  Activity: Non-toxic
